Test [1] concerns the target Androgen (Testosterone) AR (Rattus norvegicus (Rat), UniProt P15207). Put plainly: Radioligand binding assay No. 285010. As to conditions: test substance 10 μM, read-out: Inhibitory rate (%), Androgen (Testosterone) AR.
Test [2] has as its target Nicotinic Acetylcholine α1, Bungarotoxin (Homo sapiens (Human), UniProt P02708+P07510+Q07001). Put plainly: Radioligand binding assay No. 258700. As to conditions: read-out: Inhibitory rate (%), Nicotinic Acetylcholine α1, Bungarotoxin.
Test [3] addresses Melatonin MT1 (Homo sapiens (Human), UniProt P48039). Put plainly: Radioligand binding assay No. 251600. The conditions noted are these: test substance 10 μM, read-out: Inhibitory rate (%), Melatonin MT1.
Test [4] concerns the target Tachykinin NK1 (Homo sapiens (Human), UniProt P25103). Put plainly: Radioligand binding assay No. 255520. The conditions noted are these: test substance 10 μM, read-out: Inhibitory rate (%), Tachykinin NK1.
The target in test [5] is Serotonin (5-Hydroxytryptamine) 5-HT3 (Homo sapiens (Human), UniProt P46098). Kind of test: Radioligand binding assay No. 271910. As to conditions: test substance 10 μM, read-out: Inhibitory rate (%), Serotonin (5-Hydroxytryptamine) 5-HT3.
In test [6] the target is GSK3β (Homo sapiens (Human), UniProt P49841). Put plainly: Kinase selectivity, Mobility shift assay. The format is biochemical. On the procedure: (§1) Object: In this assay, the inhibitory activity of the test substance on the kinases listed in Table 3 was determined, and therefore the selectivity of the present compound was determined.
(§2) Except for the BRAF V600E kinase in Table 3, the Mobility shift assay was used for other kinases.
(§3) 1. Preparation of Agents:
(§4) • 1.1 1-fold kinase buffer without MnCl2: 50 mM HEPES, pH 7.5, 0.0015% Brij-35, 10 mM MgCl2, 2 mM DTT. • 1.2 1-fold kinase buffer with MnCl2: 50 mM HEPES, pH 7.5, 0.0015% Brij-35, 10 mM MgCl2, 10 mM MnCl2, 2 mM DTT. • 1.3 Termination solution: 100 mM HEPES, pH 7.5, 0.0015% Brij-35, 0.2% Coating Reagent#3, 50 mM EDTA. • 1.4 2.5-fold kinase solution: The kinase was added to the 1-fold kinase buffer to form a 2.5-fold kinase solution. • 1.5 2.5-fold substrate solution: FAM fluorescence-labelled polypeptide and ATP were added to the 1-fold kinase buffer to form a 2.5-fold substrate solution. 2. Preparation of 5-fold compound
(§5) The final test concentration of the compound was 10 μM at maximum. Firstly, a 50-fold concentration (i.e. 500 μM) was prepared with 100% DMSO. The compound was diluted with 100% DMSO by 5 folds at 5 concentrations (successively 500 μM, 100 μM, 20 μM, 4 μM, and 0.8 μM). After diluting with 1-fold kinase buffer by 10 folds, 5 μl of the samples were transferred to a 384-well reaction plate. Two negative control wells and two positive control wells were set at each line respectively. Replication was made in a 96-well plate in five concentrations of 5-fold compound. 10% DMSO was added to the positive control well, and 5 μl of EDTA (250 mM) was added to the negative control well.
(§6) • 3.1 To the 384-well reaction plate was added 5-fold compound dissolved in 10% DMSO at 5 μl/well. • 3.2 To the 384-well reaction plate was added 2.5-fold kinase solution at 10 μl/well. The plate was incubated at room temperature for 10 mins. • 3.3 To the 384-well reaction plate was added 2.5-fold substrate solution at 10 μl/well. The plate was incubated at 28° C. for a certain period. • 3.4 25 μl termination solution was added to terminate the reaction. The conversion was read from Caliper. 4. Inhibition rate calculation Inhibition rate (%)=(maximum−sample value)/(maximum−minimum)×100 • wherein: • maximum refers to the conversion at the DMSO control well, • minimum refers to the conversion at the control well without kinase. Lanthascreen Analysis Method for the BRAF V600E Kinase 1. Preparation of Agents: • 1.1 2-fold kinase solution: using 1-fold kinase buffer to prepare 2-fold kinase solution, with a final concentration of 0.35 nM of BRAFV600E; • 1.2 4-fold substrate solution: using 1-fold kinase buffer to prepare 4-fold substrate solution, with a final substrate solution concentration of 0.2 μM of Fluorescein-MAP2K1 and 1.5 μM of ATP. 2. Preparation of 4-fold compound • The final test concentration of the compound was 10 μM at maximum. Firstly, a 100-fold concentration (i.e. 1000 μM) was prepared with 100% DMSO. The compound was diluted with 100% DMSO by 5 folds at 5 concentrations. The compound series was identical to that in the Mobility Shift Assay. After diluting with 1-fold kinase buffer by 25 folds, the resulting samples were shaked and mixed evenly on a plate-shaker for 10 mins. 3. Procedure • 3.1 To the 384-well reaction plate was added 4-fold compound dissolved in 10% DMSO at 2.5 µl/well; • 3.2 To the 384-well reaction plate was added 2-fold kinase solution at 5 μl/well, and to the negative control wells were added 1-fold kinase buffer. The samples were shaked, mixed evenly, and kept standing at room temperature. • 3.3 To the 384-well reaction plate was added 4-fold substrate solution at 2.5 μl/well. The plate was reacted, shaked, mixed evenly and incubated at room temperature for one hour; • 3.4 Reaction result detection: 2-fold detection solution was prepared, with a final concentration of 2 nM of Antibody and 10 mM of EDTA. 10 μl of the detection solution was transferred to the 384-well plate to terminate the reaction. […]

Test [7] concerns the target IKKB (Homo sapiens (Human), UniProt O14920). Kind of test: Kinase selectivity, Mobility shift assay. It is filed as biochemical. The method, then: as §1, §2, §3, §4, §5, §6
Test [8] addresses FES (Homo sapiens (Human), UniProt P07332). Kind of test: Kinase selectivity, Mobility shift assay. It is filed as biochemical. On the procedure: as §1, §2, §3, §4, §5, §6
For test [9], the target named is ALK (Homo sapiens (Human), UniProt Q9UM73). Put plainly: Kinase selectivity, Mobility shift assay. It is filed as biochemical. The method, then: as §1, §2, §3, §4, §5, §6
Test [10] has as its target PAK2 (Homo sapiens (Human), UniProt Q13177). Put plainly: Kinase selectivity, Mobility shift assay. The format is biochemical. The method, then: as §1, §2, §3, §4, §5, §6
The test system of test [11] is Potassium Channel [KATP]. Kind of test: Radioligand binding assay No. 265600. As to conditions: test substance 10 μM; Human.
The target in test [12] is Adrenergic α1D (Homo sapiens (Human), UniProt P25100). Kind of test: Radioligand binding assay No. 203400. The conditions noted are these: test substance 10 μM, read-out: Inhibitory rate (%), Adrenergic α1D.
The target in test [13] is Bradykinin B2 (Homo sapiens (Human), UniProt P30411). Kind of test: Radioligand binding assay No. 212620. The conditions noted are these: test substance 10 μM, read-out: Inhibitory rate (%), Bradykinin B2.
The subject of test [14] is ImidazolineI2, Central. Put plainly: Radioligand binding assay No. 241000. As to conditions: test substance 10 μM; rat.
In test [15] the target is Calcium Channel N-Type (Rattus norvegicus (Rat), UniProt Q02294). Kind of test: Radioligand binding assay No. 216000. The conditions noted are these: test substance 10 μM, read-out: Inhibitory rate (%), Calcium Channel N-Type.
Calcium Channel N-Type, sequence (Q02294 whole entry): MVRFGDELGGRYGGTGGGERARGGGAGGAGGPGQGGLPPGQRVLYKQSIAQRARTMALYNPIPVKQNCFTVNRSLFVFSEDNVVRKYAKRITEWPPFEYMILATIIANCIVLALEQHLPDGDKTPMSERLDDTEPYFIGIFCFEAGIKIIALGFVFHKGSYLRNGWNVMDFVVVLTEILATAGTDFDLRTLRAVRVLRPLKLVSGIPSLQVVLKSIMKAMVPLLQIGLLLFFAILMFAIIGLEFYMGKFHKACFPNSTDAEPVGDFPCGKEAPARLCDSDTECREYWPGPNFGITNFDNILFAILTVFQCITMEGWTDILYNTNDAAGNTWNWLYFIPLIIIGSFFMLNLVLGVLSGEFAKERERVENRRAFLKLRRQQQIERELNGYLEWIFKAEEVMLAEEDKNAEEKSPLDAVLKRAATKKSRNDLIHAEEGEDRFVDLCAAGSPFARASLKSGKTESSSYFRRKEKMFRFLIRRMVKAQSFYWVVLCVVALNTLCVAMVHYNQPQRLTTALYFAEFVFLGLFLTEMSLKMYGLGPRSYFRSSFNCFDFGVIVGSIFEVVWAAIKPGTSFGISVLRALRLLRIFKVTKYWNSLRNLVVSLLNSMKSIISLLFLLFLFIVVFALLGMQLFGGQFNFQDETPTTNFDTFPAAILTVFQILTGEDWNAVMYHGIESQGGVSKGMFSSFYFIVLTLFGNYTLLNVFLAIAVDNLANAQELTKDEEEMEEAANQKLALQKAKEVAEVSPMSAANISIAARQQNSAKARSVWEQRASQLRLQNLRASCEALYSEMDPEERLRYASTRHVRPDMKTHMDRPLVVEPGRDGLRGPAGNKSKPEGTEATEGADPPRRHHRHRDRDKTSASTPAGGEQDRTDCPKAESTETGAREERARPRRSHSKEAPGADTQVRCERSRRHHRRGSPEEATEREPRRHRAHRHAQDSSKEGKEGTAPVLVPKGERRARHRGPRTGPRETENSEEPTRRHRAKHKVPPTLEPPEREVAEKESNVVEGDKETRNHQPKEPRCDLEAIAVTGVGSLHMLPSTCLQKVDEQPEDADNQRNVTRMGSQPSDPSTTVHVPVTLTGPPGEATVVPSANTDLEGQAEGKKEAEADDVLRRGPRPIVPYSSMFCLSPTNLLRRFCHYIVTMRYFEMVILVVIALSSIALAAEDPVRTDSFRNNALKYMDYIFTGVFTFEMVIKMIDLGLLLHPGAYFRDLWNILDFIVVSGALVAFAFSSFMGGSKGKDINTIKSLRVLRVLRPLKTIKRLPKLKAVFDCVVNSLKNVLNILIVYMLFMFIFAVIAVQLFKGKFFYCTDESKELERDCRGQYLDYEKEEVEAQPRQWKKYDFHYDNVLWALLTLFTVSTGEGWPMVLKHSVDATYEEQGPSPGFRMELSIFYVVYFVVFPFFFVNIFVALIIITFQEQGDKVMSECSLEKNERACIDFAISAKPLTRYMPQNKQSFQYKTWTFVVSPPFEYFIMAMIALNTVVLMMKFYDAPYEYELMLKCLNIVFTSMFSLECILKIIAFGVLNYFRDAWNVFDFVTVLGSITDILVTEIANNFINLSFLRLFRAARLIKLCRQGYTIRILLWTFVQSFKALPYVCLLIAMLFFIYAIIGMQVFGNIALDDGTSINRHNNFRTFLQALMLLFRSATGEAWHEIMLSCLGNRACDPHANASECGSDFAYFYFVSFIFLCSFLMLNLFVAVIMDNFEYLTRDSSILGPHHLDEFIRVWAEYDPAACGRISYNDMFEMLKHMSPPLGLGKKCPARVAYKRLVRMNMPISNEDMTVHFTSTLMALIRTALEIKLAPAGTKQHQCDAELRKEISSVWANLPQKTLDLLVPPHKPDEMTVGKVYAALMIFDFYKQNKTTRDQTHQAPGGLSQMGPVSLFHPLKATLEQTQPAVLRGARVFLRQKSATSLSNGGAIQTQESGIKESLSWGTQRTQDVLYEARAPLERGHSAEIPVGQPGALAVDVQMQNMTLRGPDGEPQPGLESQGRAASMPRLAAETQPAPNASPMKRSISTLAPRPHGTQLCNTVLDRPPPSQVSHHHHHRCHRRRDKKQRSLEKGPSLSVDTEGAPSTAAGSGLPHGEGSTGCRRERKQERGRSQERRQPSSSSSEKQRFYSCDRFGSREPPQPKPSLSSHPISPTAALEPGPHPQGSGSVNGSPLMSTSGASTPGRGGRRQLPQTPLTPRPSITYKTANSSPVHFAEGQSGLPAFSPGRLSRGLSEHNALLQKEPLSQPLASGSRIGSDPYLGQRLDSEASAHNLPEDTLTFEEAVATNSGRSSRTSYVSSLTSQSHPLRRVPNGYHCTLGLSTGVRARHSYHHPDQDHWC

Adrenergic α1D, sequence (P25100 whole entry): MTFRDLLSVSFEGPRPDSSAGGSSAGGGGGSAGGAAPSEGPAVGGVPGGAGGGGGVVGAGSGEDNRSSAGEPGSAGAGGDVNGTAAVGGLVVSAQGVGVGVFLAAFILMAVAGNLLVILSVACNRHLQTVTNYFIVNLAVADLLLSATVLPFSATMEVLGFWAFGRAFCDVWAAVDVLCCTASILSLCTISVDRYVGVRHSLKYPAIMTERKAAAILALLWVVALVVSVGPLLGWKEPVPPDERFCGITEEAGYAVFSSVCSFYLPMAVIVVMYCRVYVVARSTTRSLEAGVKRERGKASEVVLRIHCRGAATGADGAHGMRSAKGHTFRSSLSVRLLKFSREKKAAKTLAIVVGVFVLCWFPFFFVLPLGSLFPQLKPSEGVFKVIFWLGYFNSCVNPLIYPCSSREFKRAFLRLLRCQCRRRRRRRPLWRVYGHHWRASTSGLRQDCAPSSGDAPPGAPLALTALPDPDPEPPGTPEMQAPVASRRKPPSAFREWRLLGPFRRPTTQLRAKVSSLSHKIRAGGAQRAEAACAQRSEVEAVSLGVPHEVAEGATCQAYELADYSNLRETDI
ALK, sequence (Q9UM73 19-1620, species assumed): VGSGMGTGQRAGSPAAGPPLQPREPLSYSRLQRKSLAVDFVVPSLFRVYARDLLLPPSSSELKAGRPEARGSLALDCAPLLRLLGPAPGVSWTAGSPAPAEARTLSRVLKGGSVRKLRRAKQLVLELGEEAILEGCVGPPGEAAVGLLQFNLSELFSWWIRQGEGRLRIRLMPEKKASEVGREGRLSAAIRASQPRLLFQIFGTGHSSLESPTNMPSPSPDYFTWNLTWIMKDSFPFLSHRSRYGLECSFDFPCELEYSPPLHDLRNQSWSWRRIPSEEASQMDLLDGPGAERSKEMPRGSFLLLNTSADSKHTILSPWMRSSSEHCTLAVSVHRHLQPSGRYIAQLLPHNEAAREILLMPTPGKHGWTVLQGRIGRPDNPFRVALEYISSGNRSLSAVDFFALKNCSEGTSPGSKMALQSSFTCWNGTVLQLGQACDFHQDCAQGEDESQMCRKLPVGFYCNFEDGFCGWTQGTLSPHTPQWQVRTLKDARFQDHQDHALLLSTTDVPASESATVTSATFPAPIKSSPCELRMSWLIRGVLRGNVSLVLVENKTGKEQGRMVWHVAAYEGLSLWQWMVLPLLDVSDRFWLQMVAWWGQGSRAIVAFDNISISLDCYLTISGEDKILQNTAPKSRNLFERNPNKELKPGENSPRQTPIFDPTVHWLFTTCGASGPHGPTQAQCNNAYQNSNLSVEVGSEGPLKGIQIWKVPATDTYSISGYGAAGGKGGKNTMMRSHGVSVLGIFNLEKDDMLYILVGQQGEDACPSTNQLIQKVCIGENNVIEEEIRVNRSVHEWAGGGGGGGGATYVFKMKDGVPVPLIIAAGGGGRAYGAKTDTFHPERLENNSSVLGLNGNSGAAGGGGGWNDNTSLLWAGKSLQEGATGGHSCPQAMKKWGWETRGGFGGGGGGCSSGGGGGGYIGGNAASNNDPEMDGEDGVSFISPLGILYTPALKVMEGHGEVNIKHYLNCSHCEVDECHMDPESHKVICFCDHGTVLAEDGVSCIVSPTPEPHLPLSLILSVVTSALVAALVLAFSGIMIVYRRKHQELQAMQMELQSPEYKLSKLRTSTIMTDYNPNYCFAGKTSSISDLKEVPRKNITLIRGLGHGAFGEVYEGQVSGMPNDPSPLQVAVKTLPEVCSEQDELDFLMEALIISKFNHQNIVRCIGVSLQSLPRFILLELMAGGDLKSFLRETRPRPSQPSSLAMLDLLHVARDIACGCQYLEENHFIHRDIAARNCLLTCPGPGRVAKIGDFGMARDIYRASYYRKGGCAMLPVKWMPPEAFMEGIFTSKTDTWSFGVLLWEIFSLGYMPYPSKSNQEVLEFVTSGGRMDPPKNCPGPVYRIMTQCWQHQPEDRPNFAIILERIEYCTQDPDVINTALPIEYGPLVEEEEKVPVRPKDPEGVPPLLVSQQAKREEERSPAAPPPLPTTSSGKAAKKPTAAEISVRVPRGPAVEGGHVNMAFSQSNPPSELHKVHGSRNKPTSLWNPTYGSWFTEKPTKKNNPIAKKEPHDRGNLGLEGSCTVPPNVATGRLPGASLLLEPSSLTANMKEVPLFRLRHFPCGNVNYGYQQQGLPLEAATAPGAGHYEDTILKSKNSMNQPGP
GSK3β, sequence (P49841 whole entry, species assumed): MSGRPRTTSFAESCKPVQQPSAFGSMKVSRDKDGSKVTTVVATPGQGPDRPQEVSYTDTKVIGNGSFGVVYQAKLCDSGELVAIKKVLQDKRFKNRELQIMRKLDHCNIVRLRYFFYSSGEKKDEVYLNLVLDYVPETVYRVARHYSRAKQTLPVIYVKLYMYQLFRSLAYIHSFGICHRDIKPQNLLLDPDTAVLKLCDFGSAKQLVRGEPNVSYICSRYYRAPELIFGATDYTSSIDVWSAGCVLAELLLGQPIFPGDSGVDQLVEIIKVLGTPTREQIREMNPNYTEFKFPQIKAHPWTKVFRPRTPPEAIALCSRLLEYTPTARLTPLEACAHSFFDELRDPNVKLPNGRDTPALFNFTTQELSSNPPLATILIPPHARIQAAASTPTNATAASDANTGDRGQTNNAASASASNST

For `Nc1ccc(-c2ccc3ncc4c(=O)[nH]c(=O)n(-c5cccc(C(F)(F)F)c5)c4c3n2)cn1` [Compound 5, 9-(6-aminopyridin-3-yl)-1-(3-(trifluoromethyl)phenyl)pyrimido[5,4-c][1,5]naphthyridine-2,4(1H,3H)-dione], the inhibition at 10 µM in test [1] came to 30%; in test [2], 4%; in test [3], 17%; in test [4] it was 20%; in [5] it was 8%; in [12], 9%. Also, the inhibition at 10 µM is 24% in test [13] and -22% in test [15]. In addition, the IC50 was > 10000 nM in test [6]; > 10000 nM in [7]; > 10000 nM in [8]; 1170 nM in test [9]; > 10000 nM in [10]. In [11], the “Inhibitory rate (%), Potassium Channel [KATP]” value is 11%. Besides, the “Inhibitory rate (%), ImidazolineI2, Central” value in test [14] stood at 0%.

Broadly, the IC50 is the concentration needed to halve the response being measured.

The record behind these values is US9365572B2, “PI3K and/or mTOR inhibitor” (XUANZHU PHARMA CO., LTD., priority 2012, dated 2016).
